What was measured:
Rat hepatocyte = assay: Metabolic stability assay (rat hepatocyte Clint); format: in vitro ADME; settings: 1 μM compound, cryopreserved hepatocytes 1 million cells per mL
Description: Viability of cryopreserved hepatocytes was determined using trypan blue and the cell conc. was adjusted to […] with buffer. 1 μM compound (in Acetonitrile; 0.01% DMSO) was incubated with 250 μL of hepatocytecells (1 million cells per mL) in a 96 deep well plate. Reaction was stopped at different time points (0, 0.5, 5, 15, 30, 45, 60, 80, 100 and 120 min) by addition of 3 volumes of chilled acetonitrile to 20 μL of reaction mixture and centrifuged at 4° C. for 15 min. 40 μL of supernatant was diluted to 200 μL with pure water and analyzed using LC-MS/MS.
In vitro hepatocyte clearance was estimated based on determination of elimination half-life (T1/2) of compounds disappearance from their initial concentrations. Peak area ratios of each compound (test or control) to IS was calculated. Drug elimination rate constant k (min−1), T1/2 (min), and in vitro intrinsic clearance CLint (μL/min/E6) was calculated according to the following equations: […]
Where Chep (cells×μL^−1) is the cell concentration in the incubation system.

[1] = target: Full length human DNAPK protein (Homo sapiens, UniProt P78527); assay: DNA-PK enzymatic assay (TR-FRET); format: biochemical; settings: 10 μM ATP, 1.6 μM peptide substrate
MDR1, BCRP = assay: MDCKII-MDR1-BCRP efflux assay; format: in vitro ADME; settings: dog, pH 7.4, 5 μM compound, HBSS pH 7.4, read-out: MDCK-Mdr1-BCRP efflux ratio
Description: The apical-to-basolateral (A-B) and basolateral-to-apical (B-A) transport of compound in HBSS (25 mM HEPES, pH 7.4) was measured across MDCKII-MDR1-BCRP cell monolayers. Incubations were performed at approximately 37° C. for 120 min, with functionality of the test system being confirmed using 5 μM digoxin as a positive control substrate. Transport of 5 μM compound and control compound were determined by quantifying substrate concentration in the incubation medium of donor compartment at the beginning of the incubation period, and both donor and receiver compartments at the end of the incubation period. The data was used to calculate the apparent permeability (Papp). All incubations were performed in triplicate and integrity of the cell monolayers was confirmed using the marker Lucifer yellow.
The permeability coefficient Pexact (cm/s) was calculated using the equation: […]
The Pexact ratio was calculated using the equation: […]
The efflux ratio was calculated using the equation: […]
Where dCr/dt is the cumulative concentration of compound in the receiver chamber as a function of time (μM/s); Vr is the solution volume in the receiver chamber (0.1 mL on the apical side, 0.3 mL on the basolateral side); A is the surface area for the transport, i.e. 0.11 cm2 for the area of the monolayer; CO is the initial concentration in the donor chamber (μM).

[2] = Metabolic stability assay (human microsomal Clint); format: in vitro ADME; settings: human, pooled human liver microsomes, pH 7.4, 1 μM compound, 1 mg/mL microsomes, 1 mM NADPH, 37° C.
Description: 1 μM compound was incubated with 1 mg/mL of microsomes (Pooled HLM with 20 mg/ml protein cone) at 37° C. in 250 μL of buffer (100 mM phosphate buffer, pH-7.4) containing 1 mM NADPH solution. 20 μL of incubation mix was quenched with 5 volumes chilled acetonitrile at different time points 0, 0.5, 5, 10, 15, 20 and 30 min in a fresh 96 well plate. The quench plate was centrifuged at 4000 rpm for 15 min. 40 μL of supernatant was diluted to 200 μL with pure water and analyzed using LC-MS/MS.
In vitro intrinsic clearance of the drugs in the microsome CLint (μl/min/mg) was calculated in the similar manner as the CLint in the hepatocyte.

| SMILES | Rat hepatocyte CLint (μl/min/10^−6 cells) (Rat hepatocyte) | IC50 [1] [nM] | efflux ratio at 120 min, 5 μM (MDR1, BCRP) | microsomal CLint at 1 μM [2] [µL/min/mg] |
| --- | --- | --- | --- | --- |
| Cc1cc2nccn2cc1Nc1ncc2c(C)nn(C3CCOCC3)c2n1 [Example 14, 3-methyl-N-(7-methylimidazo[1,2-a]pyridin-6-yl)-1-(tetrahydro-2H-pyran-4-yl)-1H-pyrazolo[3,4-d]pyrimidin-6-amine] | 1.7 | 1.6 | 2.3 | 9.9 |
| Cc1cc2ncnn2cc1Nc1ncc2c(C)nn([C@H]3CC[C@@H](O)CC3)c2n1 [Example 32, (1s,4s)-4-(3-methyl-6-((7-methyl-[1,2,4]triazolo[1,5-a]pyridin-6-yl)amino)-1H-pyrazolo[3,4-d]pyrimidin-1-yl)cyclohexan-1-ol] | 11.5 | 1.9 | 9.4 | 9.1 |
| CO[C@H]1CC[C@@H](c2nn(C)c3cnc(Nc4cn5ncnc5cc4C)nc32)CC1 [Example 8, 3-((1s,4s)-4-methoxycyclohexyl)-1-methyl-N-(7-methyl-[1,2,4]triazolo[1,5-a]pyridin-6-yl)-1H-pyrazolo[4,3-d]pyrimidin-5-amine] | 20.7 | 0.7 | 1.7 | 234 |
| Cc1cc2ncnn2cc1Nc1ncc2c(n1)c(C1CCC(F)(F)CC1)nn2C [Example 9, 3-(4,4-difluorocyclohexyl)-1-methyl-N-(7-methyl-[1,2,4]triazolo[1,5-a]pyridin-6-yl)-1H-pyrazolo[4,3-d]pyrimidin-5-amine] | 11.3 | 0.7 | 1.3 | 135 |
| Cc1cc2ncnn2cc1Nc1ncc2c(C)nn(C3CCCCC3)c2n1 [Example 20, 1-cyclohexyl-3-methyl-N-(7-methyl-[1,2,4]triazolo[1,5-a]pyridin-6-yl)-1H-pyrazolo[3,4-d]pyrimidin-6-amine] | 52.0 | 1.3 | 0.8 | 117 |
| Cc1nn(C2CCOCC2)c2nc(Nc3cn4ncnc4cc3Cl)ncc12 [Example 16, N-(7-chloro-[1,2,4]triazolo[1,5-a]pyridin-6-yl)-3-methyl-1-(tetrahydro-2H-pyran-4-yl)-1H-pyrazolo[3,4-d]pyrimidin-6-amine] | 11.8 | 8.4 | 0.8 | 26.4 |
| Cc1cc2ncnn2cc1Nc1ncc2c(n1)c(C1CCCCC1)nn2C [Example 5, 3-cyclohexyl-1-methyl-N-(7-methyl-[1,2,4]triazolo[1,5-a]pyridin-6-yl)-1H-pyrazolo[4,3-d]pyrimidin-5-amine] | 22.8 | 0.4 | 0.8 | 135 |
| Cc1cc2ncnn2cc1Nc1ncc2c(n1)c(C(C)C)nn2C [Example 4, 3-isopropyl-1-methyl-N-(7-methyl-[1,2,4]triazolo[1,5-a]pyridin-6-yl)-1H-pyrazolo[4,3-d]pyrimidin-5-amine] | 10.7 | 1.6 | 0.9 | 47.3 |

Further lines, results first:

| Rat hepatocyte CLint (μl/min/10^−6 cells) (Rat hepatocyte) | IC50 [1] [nM] | efflux ratio at 120 min, 5 μM (MDR1, BCRP) | microsomal CLint at 1 μM [2] [µL/min/mg] | SMILES |
| --- | --- | --- | --- | --- |
| 4.2 | 12.2 | 1.6 | 20.9 | Cc1cc2ncnn2cc1Nc1ncc2c(C)nn(CC(F)F)c2n1 [Example 57, 1-(2,2-difluoroethyl)-3-methyl-N-(7-methyl-[1,2,4]triazolo[1,5-a]pyridin-6-yl)-1H-pyrazolo[3,4-d]pyrimidin-6-amine] |
| 13.3 | 8 | 2 | 17.1 | COCCCn1nc(C)c2cnc(Nc3cn4ncnc4cc3C)nc21 [Example 65, 1-(3-methoxypropyl)-3-methyl-N-(7-methyl-[1,2,4]triazolo[1,5-a]pyridin-6-yl)-1H-pyrazolo[3,4-d]pyrimidin-6-amine] |
| 33.4 | 2.4 | 1.4 | > 300 | Cc1cc2ncnn2cc1Nc1ncc2c(C)nn(C3CC(C)OC(C)C3)c2n1 (single isomer, unassigned) [Example 86, 1-(2,6-dimethyltetrahydro-2H-pyran-4-yl)-3-methyl-N-(7-methyl-[1,2,4]triazolo[1,5-a]pyridin-6-yl)-1H-pyrazolo[3,4-d]pyrimidin-6-amine] |
| <1 | 1.8 | 3.6 | 11.1 | Cc1cc2ncnn2cc1Nc1ncc2c(C)nn(C3CCOC3)c2n1 (single isomer, unassigned) [Example 48, 3-methyl-N-(7-methyl-[1,2,4]triazolo[1,5-a]pyridin-6-yl)-1-(tetrahydrofuran-3-yl)-1H-pyrazolo[3,4-d]pyrimidin-6-amine] |
| 32.9 | 2.2 | 1.9 | 70.8 | Cc1cc2ncnn2cc1Nc1ncc2c(C)nn(CCCC(F)(F)F)c2n1 [Example 58, 3-methyl-N-(7-methyl-[1,2,4]triazolo[1,5-a]pyridin-6-yl)-1-(4,4,4-trifluorobutyl)-1H-pyrazolo[3,4-d]pyrimidin-6-amine] |
| 65.5 | 1.4 | 1.5 | 216 | Cc1cc2ncnn2cc1Nc1ncc2c(C)nn(C3CC4(C3)CC(F)(F)C4)c2n1 [Example 41, 1-(6,6-difluorospiro[3.3]heptan-2-yl)-3-methyl-N-(7-methyl-[1,2,4]triazolo[1,5-a]pyridin-6-yl)-1H-pyrazolo[3,4-d]pyrimidin-6-amine] |
| 22.7 | 13.5 | 0.7 | 20.4 | Cc1cc2nccn2cc1Nc1ncc2c(C)nn(C(C)C)c2n1 [Example 60, 1-isopropyl-3-methyl-N-(7-methylimidazo[1,2-a]pyridin-6-yl)-1H-pyrazolo[3,4-d]pyrimidin-6-amine] |
| 9.6 | 1.6 | 2 | 71.1 | Cc1cc2ncnn2cc1Nc1ncc2c(C)nn(C3CCOC(C)(C)C3)c2n1 (single isomer, unassigned) [Example 116, 1-(2,2-dimethyltetrahydro-2H-pyran-4-yl)-3-methyl-N-(7-methyl-[1,2,4]triazolo[1,5-a]pyridin-6-yl)-1H-pyrazolo[3,4-d]pyrimidin-6-amine] |
| 2.1 | 7 | 2.7 | 12.2 | Cc1cc2ncnn2cc1Nc1ncc2c(C)nn(CC3CCCO3)c2n1 (single isomer, unassigned) [Example 50, 3-methyl-N-(7-methyl-[1,2,4]triazolo[1,5-a]pyridin-6-yl)-1-((tetrahydrofuran-2-yl)methyl)-1H-pyrazolo[3,4-d]pyrimidin-6-amine] |
